Results reported in ChEMBL document CHEMBL5725901, “[7,6]-fused bicyclic antidiabetic compounds” (2018).
pEC50: −log10 of the molar value.

Molecular target: Free fatty acid receptor 1 (Homo sapiens, UniProt O14842)
Test: FLIPR Assay: FLIPR (Fluorimetric Imaging Plate Reader, Molecular Devices) assays were performed to measure agonist-induced calcium mobilization of the stable clones. For the FLIPR assay, one day before assay, GPR40/CHO NFAT BLA cells were seeded into black-wall-clear-bottom 384-well plates (Costar) at 1.4×10e4 cells/20 μL medium/well. The cells were incubated with 20 μl/well of the assay buffer (HBSS, 0.1% BSA, 20 mM HEPES, 2.5 mM probenecid, pH 7.4) containing 8 μM fluo-4,AM, 0.08% pluronic acid at room temperature for 100 minutes. Fluorescence output was measured using FLIPR. Compounds were dissolved in DMSO and diluted to desired concentrations with assay buffer. 13.3 μL/well of compound solution was added.

Free fatty acid receptor 1, sequence (O14842 whole entry): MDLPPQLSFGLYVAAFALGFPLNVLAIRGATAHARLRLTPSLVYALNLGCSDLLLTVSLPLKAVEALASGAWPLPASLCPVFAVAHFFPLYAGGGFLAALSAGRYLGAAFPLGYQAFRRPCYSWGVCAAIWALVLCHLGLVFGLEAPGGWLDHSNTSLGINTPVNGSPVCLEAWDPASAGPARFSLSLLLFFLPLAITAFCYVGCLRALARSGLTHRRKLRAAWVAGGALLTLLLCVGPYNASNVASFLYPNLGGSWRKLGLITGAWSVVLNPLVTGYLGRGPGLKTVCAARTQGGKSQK

## Cc1cccc(C)c1-c1cccc(C2CCCc3cc(CCC(=O)O)ccc3O2)c1 (stereo unspecified)
  pEC50: 5.48
